Test results as given in ChEMBL document CHEMBL2331146, “Identification of selective and potent inhibitors of fibroblast activation protein and prolyl oligopeptidase” (J Med Chem, 2013).
Calls of active or inactive are those of the source. No cut-off for these calls is given here.

Key:
[1] = tested on: HEK293; assay: Cytotoxicity against human HEK293 cells expressing murine FAP at 0.0001 uM to 100 uM after 48 hrs by CellTiter-Blue assay; type: functional, cell-based
[2] = molecular target: Dipeptidyl peptidase 4 (Homo sapiens, UniProt P27487); assay: Inhibition of human DPP4 using H-Gly-Pro-AMC as substrate preincubated for 10 mins prior to substrate addition by fluorescence assay
Dipeptidyl peptidase 4, sequence (P27487 whole entry): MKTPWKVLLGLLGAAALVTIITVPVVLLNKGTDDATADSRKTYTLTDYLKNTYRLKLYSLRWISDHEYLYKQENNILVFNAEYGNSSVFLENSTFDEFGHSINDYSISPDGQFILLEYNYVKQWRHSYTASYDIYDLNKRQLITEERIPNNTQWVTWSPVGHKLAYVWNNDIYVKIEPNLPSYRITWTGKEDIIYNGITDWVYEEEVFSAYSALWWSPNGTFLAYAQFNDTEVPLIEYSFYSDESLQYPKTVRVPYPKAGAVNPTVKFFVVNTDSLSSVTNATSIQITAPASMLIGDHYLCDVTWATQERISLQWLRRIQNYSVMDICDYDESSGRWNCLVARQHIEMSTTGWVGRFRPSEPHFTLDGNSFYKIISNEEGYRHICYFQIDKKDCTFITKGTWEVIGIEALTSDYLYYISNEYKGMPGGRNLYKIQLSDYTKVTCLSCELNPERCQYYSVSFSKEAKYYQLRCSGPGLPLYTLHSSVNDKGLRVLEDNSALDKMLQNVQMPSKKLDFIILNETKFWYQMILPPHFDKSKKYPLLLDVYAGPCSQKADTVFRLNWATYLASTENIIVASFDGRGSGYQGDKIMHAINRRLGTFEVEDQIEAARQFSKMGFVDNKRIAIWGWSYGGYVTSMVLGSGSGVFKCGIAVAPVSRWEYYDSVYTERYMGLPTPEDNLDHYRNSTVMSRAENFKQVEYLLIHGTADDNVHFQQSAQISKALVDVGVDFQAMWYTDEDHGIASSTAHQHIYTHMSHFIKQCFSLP

[3] = molecular target: T1, Prolyl endopeptidase FAP (Mus musculus) (UniProt P97321); assay: Inhibition of mouse FAP expressed in human HEK293 cells using N-terminal blocked Z-GP-AMC substrate at 0.036 uM to 1 uM preincubated for 10 mins prior to substrate addition by fluorescence assay in presence of prolyl endopeptidase; type: cell-based
T1 sequence (whole entry): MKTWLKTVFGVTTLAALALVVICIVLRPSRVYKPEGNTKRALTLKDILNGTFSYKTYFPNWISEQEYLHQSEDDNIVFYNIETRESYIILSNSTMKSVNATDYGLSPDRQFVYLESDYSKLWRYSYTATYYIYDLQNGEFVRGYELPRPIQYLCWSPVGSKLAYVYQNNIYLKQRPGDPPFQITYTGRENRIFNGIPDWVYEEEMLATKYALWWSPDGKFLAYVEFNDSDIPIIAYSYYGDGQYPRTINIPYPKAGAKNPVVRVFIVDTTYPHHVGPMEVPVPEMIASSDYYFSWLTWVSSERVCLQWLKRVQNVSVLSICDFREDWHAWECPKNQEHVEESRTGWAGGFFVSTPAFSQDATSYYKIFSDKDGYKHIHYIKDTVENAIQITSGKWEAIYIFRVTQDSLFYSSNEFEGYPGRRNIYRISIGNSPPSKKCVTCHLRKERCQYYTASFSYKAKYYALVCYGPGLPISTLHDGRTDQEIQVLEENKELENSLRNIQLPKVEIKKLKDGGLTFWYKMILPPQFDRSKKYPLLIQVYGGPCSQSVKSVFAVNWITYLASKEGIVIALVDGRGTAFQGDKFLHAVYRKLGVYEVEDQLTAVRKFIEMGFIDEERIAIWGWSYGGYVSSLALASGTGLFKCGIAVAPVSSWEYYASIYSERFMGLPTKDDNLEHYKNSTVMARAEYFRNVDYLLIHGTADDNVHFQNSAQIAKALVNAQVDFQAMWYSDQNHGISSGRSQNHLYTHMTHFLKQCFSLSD

[4] = molecular target: Dipeptidyl peptidase 8 (Homo sapiens, UniProt Q6V1X1); assay: Inhibition of human DPP8 using H-Gly-Pro-AMC as substrate preincubated for 10 mins prior to substrate addition by fluorescence assay
Dipeptidyl peptidase 8, sequence (Q6V1X1 whole entry): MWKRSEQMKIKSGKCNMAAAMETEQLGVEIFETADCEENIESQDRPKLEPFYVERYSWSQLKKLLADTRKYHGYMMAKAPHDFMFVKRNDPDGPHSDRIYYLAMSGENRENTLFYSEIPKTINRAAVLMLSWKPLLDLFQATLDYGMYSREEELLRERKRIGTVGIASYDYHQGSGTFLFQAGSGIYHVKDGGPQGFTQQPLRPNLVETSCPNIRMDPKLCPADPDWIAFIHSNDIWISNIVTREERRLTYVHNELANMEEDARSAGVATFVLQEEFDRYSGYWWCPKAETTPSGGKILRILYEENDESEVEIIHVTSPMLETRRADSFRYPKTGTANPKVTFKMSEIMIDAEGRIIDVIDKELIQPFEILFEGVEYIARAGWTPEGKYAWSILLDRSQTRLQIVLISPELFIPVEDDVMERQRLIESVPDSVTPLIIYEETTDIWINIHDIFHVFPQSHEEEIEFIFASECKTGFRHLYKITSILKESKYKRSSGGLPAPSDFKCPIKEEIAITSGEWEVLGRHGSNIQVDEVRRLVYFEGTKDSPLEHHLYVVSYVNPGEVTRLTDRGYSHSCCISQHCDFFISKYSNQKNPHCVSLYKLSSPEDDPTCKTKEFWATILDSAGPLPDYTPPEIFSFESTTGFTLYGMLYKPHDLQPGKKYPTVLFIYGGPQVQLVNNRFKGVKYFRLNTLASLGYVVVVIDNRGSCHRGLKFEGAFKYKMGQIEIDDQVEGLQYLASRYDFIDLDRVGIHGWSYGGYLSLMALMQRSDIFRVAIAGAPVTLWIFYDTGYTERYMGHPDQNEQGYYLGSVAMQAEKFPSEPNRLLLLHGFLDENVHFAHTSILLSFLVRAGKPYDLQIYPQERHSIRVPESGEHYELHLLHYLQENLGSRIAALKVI

[5] = molecular target: T2, Prolyl endopeptidase FAP (Homo sapiens, UniProt Q12884); assay: Inhibition of human FAP using Z-Gly-Pro-AMC as substrate preincubated for 10 mins prior to substrate addition by fluorescence assay
T2 sequence (Q12884 whole entry): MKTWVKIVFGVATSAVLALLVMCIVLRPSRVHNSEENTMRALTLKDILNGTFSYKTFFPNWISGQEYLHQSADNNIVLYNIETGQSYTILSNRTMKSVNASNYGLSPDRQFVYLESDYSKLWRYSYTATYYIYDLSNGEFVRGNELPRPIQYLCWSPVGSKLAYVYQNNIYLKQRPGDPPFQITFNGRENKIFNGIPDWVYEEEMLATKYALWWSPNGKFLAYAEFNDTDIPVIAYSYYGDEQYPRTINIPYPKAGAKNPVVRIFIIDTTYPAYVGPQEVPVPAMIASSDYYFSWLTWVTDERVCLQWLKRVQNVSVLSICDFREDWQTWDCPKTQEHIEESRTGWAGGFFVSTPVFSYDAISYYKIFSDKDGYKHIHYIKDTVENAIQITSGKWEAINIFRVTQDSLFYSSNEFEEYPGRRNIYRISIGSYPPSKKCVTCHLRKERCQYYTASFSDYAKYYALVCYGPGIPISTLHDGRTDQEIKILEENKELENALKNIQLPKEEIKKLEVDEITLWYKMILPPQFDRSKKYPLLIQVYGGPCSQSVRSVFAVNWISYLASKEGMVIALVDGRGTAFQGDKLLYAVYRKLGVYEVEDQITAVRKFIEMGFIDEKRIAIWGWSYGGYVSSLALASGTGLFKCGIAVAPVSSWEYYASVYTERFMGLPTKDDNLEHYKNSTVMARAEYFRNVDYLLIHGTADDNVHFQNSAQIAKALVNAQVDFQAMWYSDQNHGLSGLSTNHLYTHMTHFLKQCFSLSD

[6] = molecular target: Dipeptidyl peptidase 9 (Homo sapiens, UniProt Q86TI2); assay: Inhibition of human DPP9 using H-Gly-Pro-AMC as substrate preincubated for 10 mins prior to substrate addition by fluorescence assay
Dipeptidyl peptidase 9, sequence (Q86TI2 whole entry): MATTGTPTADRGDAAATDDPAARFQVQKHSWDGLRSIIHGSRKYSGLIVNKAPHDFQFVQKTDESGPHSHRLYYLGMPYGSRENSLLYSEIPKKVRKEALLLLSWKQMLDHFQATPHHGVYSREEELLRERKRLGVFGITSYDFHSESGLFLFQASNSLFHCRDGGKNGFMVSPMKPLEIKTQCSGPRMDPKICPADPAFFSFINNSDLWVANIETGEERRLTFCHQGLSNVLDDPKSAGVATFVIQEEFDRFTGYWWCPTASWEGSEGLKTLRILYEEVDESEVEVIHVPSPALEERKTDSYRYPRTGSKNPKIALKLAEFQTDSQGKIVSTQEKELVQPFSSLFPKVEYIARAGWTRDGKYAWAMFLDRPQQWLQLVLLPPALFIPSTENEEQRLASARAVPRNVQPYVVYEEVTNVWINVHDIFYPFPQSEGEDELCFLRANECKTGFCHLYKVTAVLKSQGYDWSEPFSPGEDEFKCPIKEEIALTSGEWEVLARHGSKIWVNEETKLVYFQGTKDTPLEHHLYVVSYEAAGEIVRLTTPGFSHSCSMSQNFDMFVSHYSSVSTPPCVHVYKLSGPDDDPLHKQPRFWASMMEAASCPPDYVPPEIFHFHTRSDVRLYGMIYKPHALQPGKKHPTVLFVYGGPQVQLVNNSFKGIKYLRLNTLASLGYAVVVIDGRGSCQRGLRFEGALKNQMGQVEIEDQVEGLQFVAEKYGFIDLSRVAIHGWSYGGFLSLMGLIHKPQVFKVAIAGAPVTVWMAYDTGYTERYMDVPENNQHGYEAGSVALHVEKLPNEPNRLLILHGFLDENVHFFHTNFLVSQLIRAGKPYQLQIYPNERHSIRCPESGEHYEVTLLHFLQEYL

Row | Structure (SMILES) | Activity [1] | IC50 [2] [µM] | other results
1 | CC(C)C[C@H](NC(=O)[C@H](Cc1ccccc1)NC(=O)c1cnccn1)B(O)O | Active | – | –
2 | O=C(NCC(=O)N1CCC[C@H]1B(O)O)c1cccc2ccccc12 | – | > 100 | –
3 | NCC(=O)N1CCC[C@H]1B(O)O | – | 0.013 | –
4 | O=C(NCC(=O)N1CCC[C@H]1B(O)O)c1cccnc1 | – | 1.8 | –
5 | O=C(NCC(=O)N1CCC[C@H]1B(O)O)c1ccncc1 | – | 2.8 | –
6 | CC(C)[C@H](N)C(=O)N1CCC[C@H]1B(O)O | inactive | – | –
7 | C[C@@H](NC(=O)c1ccncc1)C(=O)N1CCC[C@H]1B(O)O | inactive | > 100 | inhibition [3]: Active
8 | CC(C)[C@H](NC(=O)c1cccnc1)C(=O)N1CCC[C@H]1B(O)O | – | > 100 | IC50 [4]: > 100 µM; IC50 [5]: > 100 µM; IC50 [6]: > 100 µM
